Measured values taken from patent US20070142457A1, “Crystalline forms of docetaxel and processes for their preparation” (priority 2005, published 2007).

Assay: solubility compared with docetaxel trihydrate
Format: physicochemical
Conditions: relative to docetaxel trihydrate; statement in words, no method or figures given

With CC(=O)O[C@@]12CO[C@@H]1C[C@H](O)[C@@]1(C)C(=O)[C@H](O)C3=C(C)[C@@H](OC(=O)[C@H](O)[C@@H](NC(=O)OC(C)(C)C)c4ccccc4)C[C@@](O)([C@@H](OC(=O)c4ccccc4)[C@H]21)C3(C)C [docetaxel polymorph of the invention, docetaxel] the solubility was “greater solubility than docetaxel trihydrate”.
